Data on three molecules can be found in patent US6221676A, “DNA encoding human leukotriene C4 synthase, polypeptides and uses therefor” (Brigham and Women's Hospital, priority 1997, dated 2001).

One may read the IC50 as the concentration needed to halve the response being measured. Broadly, the inhibition is how much of the control response was suppressed.

For one assay, the target named is T1, LTC4 synthase (Homo sapiens, UniProt Q16873).
T1 construct: expressed in transfected cells; host or cells: COS-7 (lysate of transfectants; cDNA from a KG-1 library in pcDNA3)
T1 sequence (Q16873 1-150): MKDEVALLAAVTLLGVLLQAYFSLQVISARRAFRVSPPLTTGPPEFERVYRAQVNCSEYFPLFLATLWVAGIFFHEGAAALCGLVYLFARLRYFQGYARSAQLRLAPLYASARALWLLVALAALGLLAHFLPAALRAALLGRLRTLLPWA
Description: Inhibition of LTC4 synthase activity (conversion of LTA4-ME to LTC4-ME) in lysates of transfected COS-7 cells. The assay is classed as biochemical. As to the method:
HPLC was carried out with a model 126 dual pump system and model 167 scanning UV detector (Beckman Instruments) controlled by an IBM PS2/50 computer using Beckman System Gold software. Samples were applied to a 5-μm 4.6×250-mm C18 Ultrasphere reverse phase column (Beckman Instruments) equilibrated with a solvent of methanol/acetonitrile/water/acetic acid (10:15:100:0.2, v/v), pH 6.0 (solvent A). After injection of the sample, the column was eluted at a flow rate of 1 ml/min with a programmed concave gradient (System Gold curve 6) to 30% solvent A and 70% pure methanol (solvent B) over 0.2 min. After 2.8 min more, solvent B was increased linearly to 90% over 2 min and was maintained at this level for an additional 10 min. UV absorbance at 280 nm and the UV spectra were recorded simultaneously. The retention times for PGB2 and LTC4 -ME were 8.5 and 10.1 min, respectively. LTC4 -ME was quantitated by calculating the ratio of the peak area to the area of the internal standard PGB2.
Dose-Response Assay using MK886
Cell lysates of the COS-7 cell transfectant containing SEQ ID NO.: 1 were incubated with 20 micromolar LTA4 -ME, 20 mM GSH, 5 mM MgCl2 in HEPES buffer (pH 7.6), in the presence of 0-10 micromolar MK-886 for 10 minutes at room temperature. Reactions were stopped by addition of 2 volumes of methanol containing 200 ng PGB2. Samples were analyzed by RP-HPLC.
Lysates from transfected COS cells were analysed for LTC4, the product of conjugating reduced glutathione with 5,6-oxido-7,9-E-11,14-Z-eicosatetraenoic acid. […] At 10 μM, MK-886 inhibits more than 90% of the enzyme activity.

Assay [1] in a line: Conjugation of GSH to 1-chloro-2,4-dintrobenzene by purified LTC4 synthase fraction. Type of assay: biochemical. The settings on record: fraction purified from native KG-1 cells. From the text:
Detergent-solubilize LTC4 synthase from 6×10^10 native KG-1 cells (using 0.4% deoxycholate, 0.4% Triton X-102, 10% glycerol) was purified by S-hexylglutathione-agarose chromatography using procedures adapted from Penrose et al., Proc. Nat. Acad. Sci., USA, 89:, above, followed by LTC2 affinity chromatography. Active fractions purified from the S-hexylglutathione-agarose column were combined, concentrated (Amicon, Danvers, Mass.) and then loaded onto an LTC2 affinity column equilibrated with buffer A and 0.1% Triton X-102. The column was washed with the same buffer and the enzyme was eluted with buffer A, containing 0.1% Triton X-102, 0.5 M NaCl and 5 mM reduced glutathione.
The LTC4 synthase activity contained a single 18-kDa protein by sodium dodecyl sulfate-polyacrylamide gel electrophoresis (NaDodSO4 -PAGE) with silver staining. […] A sample of the purified protein was concentrated and added to an equal volume of reducing buffer, and the mixture was boiled for 5 min. The reduced protein in this solution was bound to a polyvinylidene membrane by incubation overnight at 4° C. The bound protein was analyzed for N-terminal amino acid sequence by automated Edman degradation or was digested in situ with trypsin. Fernandez et al., Anal. Biochem., 201: 255-264 (1992). […]

A value given as a limit tells only on which side of the number the result lay.

Regarding `C[C@H](C#Cc1ccc(Oc2ccc(F)cc2)o1)N(O)C(N)=O` [A79175], at LTC4 synthase (at a concentration of 10 μM, COS cell lysates), the “effect on LTC4 synthase activity” value is “did not affect LTC4 synthase activity”. For the molecule `CC(C)c1ccc2c(c1)c(SC(C)(C)C)c(CC(C)(C)C(=O)O)n2Cc1ccc(Cl)cc1` [MK-886], the IC50 against LTC4 synthase (IC50, inhibition of conversion of LTA4-ME to LTC4-ME, 20 uM LTA4-ME, COS cell lysates, dose-dependent, 10 minutes, room temperature) is under 3 µM; against LTC4 synthase (ID50, inhibition of LTC4 synthase activity, transfected COS cell lysates, dose-related (Discussion)), about 3 µM. For the same molecule, the inhibition at 10 µM at LTC4 synthase (read-out: inhibition of the enzyme activity) was over 90%.

B1: LTC4 synthase: 150-amino acid residue integral membrane protein with three hydrophobic transmembrane domains (protein, UniProt Q16873 1-150, looked up)
Leukotriene C4 synthase: T1 sequence (Q16873 1-150)
As for B1, in assay [1], the “conjugation of GSH to 1-chloro-2,4-dintrobenzene” value was “did not conjugate GSH to 1-chloro-2,4-dintrobenzene”.
